According to the NIST ThermoML archive (doi:10.1021/acs.jced.5b00694):
Numbers after ± are expanded uncertainties. One block for each compound: values may come before it.

Legend:
[1] = xn = mol fraction of the nth substance listed; conditions: 101 kPa, Liquid; for viscosity: 297.85 K, Cone and plate viscometry; for mass density: 298.15 K, Vibrating tube method
[2] = 297.85 K; 101 kPa; Liquid; Cone and plate viscometry

viscosity ([1]; x2 = 0.25): 356 ± 43 mPa·s
viscosity ([1]; x2 = 0.5): 146 ± 16 mPa·s
viscosity ([1]; x2 = 0.6): 97 ± 10 mPa·s
viscosity ([1]; x2 = 0.74): 48 ± 4.9 mPa·s
viscosity ([1]; x2 = 0.8): 35.3 ± 3.6 mPa·s
viscosity ([1]; x2 = 0.91): 14.4 ± 1.4 mPa·s
mass density ([1]; x2 = 0.25): 944 ± 1.2 kg/m3
mass density ([1]; x2 = 0.32): 945.2 ± 1.1 kg/m3
mass density ([1]; x2 = 0.5): 948 ± 1.2 kg/m3
mass density ([1]; x2 = 0.6): 950.4 ± 1.4 kg/m3
mass density ([1]; x2 = 0.74): 955.5 ± 1 kg/m3
mass density ([1]; x2 = 0.8): 959.2 ± 0.9 kg/m3
mass density ([1]; x2 = 0.91): 974.1 ± 0.7 kg/m3
Compound: CCCC[P+](CCCC)(CCCC)CCCC.O=C[O-] [tetrabutylphosphonium formate] + O

viscosity [2]: 0.9 ± 0.02 mPa·s
Compound: O [water]

viscosity ([1]; x1 = 1): 0.9 ± 0.09 mPa·s
mass density ([1]; x1 = 1): 996.8 ± 0.6 kg/m3
Compound: O [water] + CCCC[P+](CCCC)(CCCC)CCCC.O=C[O-]
